ChEMBL document CHEMBL1138368, “Synthesis of thiazolone-based sulfonamides as inhibitors of HCV NS5B polymerase” (Bioorg Med Chem Lett, 2007)

Legend:
[1] = Inhibition of HCV NS5B polymerase […]; design: species or system Hepacivirus hominis
Hepatitis C virus = assay: Antiviral activity against HCV replicon assay; format: functional, organism-based, Hepacivirus hominis

| Compound | IC50 [1] | EC50 (Hepatitis C virus) |
| --- | --- | --- |
| Cc1ccc(S(=O)(=O)NC2=NC(=O)/C(=C/c3ccco3)S2)cc1 | 11 µM | 60 µM |
| Cc1ccc(S(=O)(=O)NC2=NC(=O)/C(=C/c3ccc(C)o3)S2)cc1 | 11 µM |  |
| Cc1ccc(S(=O)(=O)NC2=NC(=O)/C(=C/c3cc(C)c(Cl)s3)S2)cc1 | 10 µM | 200 µM |
| Cc1ccc(C(=O)NC2=NC(=O)/C(=C/c3ccc(-c4ccc(-c5csnn5)cc4)o3)S2)cc1 | 11 µM | 70 µM |
| CCCCCN(C1=NC(=O)/C(=C/c2ccc(CC)o2)S1)S(=O)(=O)c1ccc(C)cc1 | > 100 µM | 55 µM |
| CCCCCCCN(C1=NC(=O)/C(=C/c2ccc(CC)o2)S1)S(=O)(=O)c1ccc(C)cc1 | > 100 µM | 90 µM |
| Cc1ccc(S(=O)(=O)NC2=NC(=O)/C(=C/c3cccs3)S2)cc1 | 12 µM | 80 µM |
| Cc1ccc(S(=O)(=O)NC2=NC(=O)/C(=C/C=C/c3ccccn3)S2)cc1 | 0.6 µM | 35 µM |
| Cc1ccc(S(=O)(=O)NC2=NC(=O)/C(=C/c3ccc(Br)o3)S2)cc1 | 2.7 µM | 50 µM |
| CCc1ccc(/C=C2\SC(NS(=O)(=O)c3ccccc3NC(C)=O)=NC2=O)o1 | 34 µM | 200 µM |
| CCc1ccc(CC2SC(NS(=O)(=O)c3ccc(C)cc3)=NC2=O)o1 (stereo not drawn) | 7.3 µM | 33 µM |
| Cc1ccc(S(=O)(=O)NC2=NC(=O)/C(=C/c3ccc(C)s3)S2)cc1 | 14 µM | 70 µM |
| Cc1ccc(S(=O)(=O)NC2=NC(=O)/C(=C/c3ccc(-c4csnn4)cc3)S2)cc1 | 1.4 µM | 20 µM |
| CCCCN(C1=NC(=O)/C(=C/c2ccc(CC)o2)S1)S(=O)(=O)c1ccc(C)cc1 | > 100 µM | 33 µM |
| Cc1ccc(S(=O)(=O)NC2=NC(=O)C(Cc3ccco3)S2)cc1 (stereo not drawn) | 74 µM | 200 µM |
| CCc1ccc(/C=C2\SC(NS(=O)(=O)c3ccccc3[N+](=O)[O-])=NC2=O)o1 | 18 µM | 90 µM |
| Cc1ccc(S(=O)(=O)NC2=NC(=O)/C(=C/c3ccc(N4CCCC4)cc3)S2)cc1 | 1.4 µM | 25 µM |
| Cc1ccc(C(=O)NC2=NC(=O)/C(=C/c3ccc(C)o3)S2)cc1 | 16 µM | 60 µM |
| Cc1ccc(S(=O)(=O)NC2=NC(=O)/C(=C/c3ccc(-c4nc(C(C)(C)C)cs4)cc3)S2)cc1 | 4.9 µM | 9 µM |
| Cc1ccc(S(=O)(=O)NC2=NC(=O)C(Cc3ccc(I)o3)S2)cc1 (stereo not drawn) | 15 µM | 40 µM |
| Cc1ccc(S(=O)(=O)NC2=NC(=O)/C(=C/c3ccc(-c4ccccc4)o3)S2)cc1 | 5.5 µM | 55 µM |

| Compound | IC50 [1] | EC50 (Hepatitis C virus) |
| --- | --- | --- |
| Cc1ccc(S(=O)(=O)NC2=NC(=O)/C(=C/c3ccc(-n4cncn4)cc3)S2)cc1 | 32 µM | 100 µM |
| Cc1ccc(S(=O)(=O)NC2=NC(=O)/C(=C/c3ccc(N4CCOCC4)cc3)S2)cc1 | 12 µM | 180 µM |
| CCc1ccc(/C=C2\SC(NS(=O)(=O)c3ccc(C)cc3)=NC2=O)o1 | 1.4 µM | 25 µM |
| Cc1ccc(S(=O)(=O)NC2=NC(=O)/C(=C/c3cc(C)c(C)o3)S2)cc1 | 3.2 µM | 200 µM |
| Cc1ccc(S(=O)(=O)NC2=NC(=O)/C(=C/c3ccc(I)o3)S2)cc1 | 2.8 µM | 38 µM |
| Cc1ccc(S(=O)(=O)NC2=NC(=O)/C(=C/C=C/c3ccco3)S2)cc1 | 5 µM | 55 µM |
| CCc1ccc(/C=C2\SC(NS(=O)(=O)c3ccc(C(F)(F)F)cc3)=NC2=O)o1 | 3.2 µM | 30 µM |
| Cc1ccc(S(=O)(=O)NC2=NC(=O)/C(=C/c3ccc([N+](=O)[O-])s3)S2)cc1 | 4.2 µM | 7 µM |
| CCCCCCN(C1=NC(=O)/C(=C/c2ccc(CC)o2)S1)S(=O)(=O)c1ccc(C)cc1 | > 100 µM | 70 µM |
| Cc1ccc(S(=O)(=O)NC2=NC(=O)C(Cc3ccc(Br)o3)S2)cc1 (stereo not drawn) | 40 µM | 64 µM |
| Cc1ccc(C(=O)NC2=NC(=O)/C(=C/c3cccs3)S2)cc1 | 33 µM | 100 µM |
| CCc1ccc(/C=C2\SC(NS(=O)(=O)c3ccccc3N)=NC2=O)o1 | 11 µM | 27 µM |
| CCN(CC)c1ccc(/C=C2\SC(NS(=O)(=O)c3ccc(C)cc3)=NC2=O)cc1 | > 100 µM | 90 µM |
| Cc1ccc(S(=O)(=O)NC2=NC(=O)/C(=C/c3ccc(-n4ccnc4)cc3)S2)cc1 | > 100 µM | 60 µM |
| CCc1ccc(/C=C2\SC(NS(=O)(=O)c3cccs3)=NC2=O)o1 | 8 µM | 40 µM |
| Cc1ccc(S(=O)(=O)NC2=NC(=O)C(CCCc3ccccn3)S2)cc1 (stereo not drawn) | > 100 µM | 180 µM |
| Cc1ccc(C(=O)NC2=NC(=O)/C(=C/c3ccc(-c4nccs4)o3)S2)cc1 | 44 µM | 120 µM |
| Cc1ccc(C(=O)NC2=NC(=O)/C(=C/c3ccc(-c4[nH]cnc4C)o3)S2)cc1 | > 100 µM | 220 µM |
| Cc1ccc(S(=O)(=O)NC2=NC(=O)/C(=C/c3ccc(-n4cccn4)cc3)S2)cc1 | 10 µM | 70 µM |
| CCc1ccc(/C=C2\SC(NS(=O)(=O)c3ccc([N+](=O)[O-])cc3)=NC2=O)o1 | 3.2 µM | 200 µM |
| CCc1ccc(/C=C2\SC(NC(=O)c3ccc(C)cc3)=NC2=O)o1 | 13 µM | 200 µM |
